Consider 96 molecules from ChEMBL document CHEMBL3507680, “University of Dundee, Gates Library screen for HepG2 cell viability”.

This data set can be described thus: Human HepG2 cell viability assay in 384 well format. Format: toxicity, cell-based. On the set-up: dose 125 nL, time 70.5 hour; cytotoxicity at 70.5 h: concentration not given beside the values. The following applies: HepG2 cells, read-out: Inhibition.

`Cc1cc(C)c2nc(CN3CCC(CN)CC3)cc(O)c2c1`: the cytotoxicity at 70.5 h came to 2.77%.
For the molecule `O=C(N[C@@H]1CCNC[C@H]1O)c1ccc(O)c(Cl)c1`, the cytotoxicity at 70.5 h is -8.26%.
Take `Cc1ccc(C)c(-n2cc(CN3CCOCC3)c(-c3ccccc3)n2)c1`: the cytotoxicity at 70.5 h was -3.83%.
For `CCOc1ccc(C(=O)N2Cc3cnc(CC(C)C)nc3C2)o1`, the cytotoxicity at 70.5 h was -4.06%.
For `CCN1CCC(CC(=O)N(C)C(C)c2cncs2)CC1` (stereo unspecified), the cytotoxicity at 70.5 h is -1.72%.
The figure for `CC(C)N1CCC(c2nnc(CN3CCCC3)n2C2CC2)CC1` is -4.86%; for `CCOCc1nc2c(c(N3CCN4CCCC4C3)n1)CCNCC2` (stereo unspecified) it is -13.6%; for `CN1CCCC2(CCN(S(=O)(=O)c3c(Cl)nc4sccn34)C2)C1=O` (stereo unspecified) it is -5.17%.
For the molecule `Cn1cccc1C(=O)N1CCC(c2nnc(Cn3ccnc3)n2C)CC1`, the cytotoxicity at 70.5 h was -5.24%.
On to `C[C@@H]1CN(CC(C)(C)N2CCOCC2)CC[C@@]1(O)C1CCOCC1`, for which the cytotoxicity at 70.5 h was found to be 7.82%.
As for `CCC(C(=O)NC1CCCCC1)n1cccc(OC)c1=O` (stereo unspecified), the figure is -1.81%; as for `Cn1cc(C(=O)N2CCCC(C(=O)CCc3ccccc3)C2)cn1` (stereo unspecified), -23.4%.
For `COc1ccc(OCc2nc(C(=O)N3CCCNC(=O)C3)co2)cc1`, the cytotoxicity at 70.5 h is -2.16%.
As to `Cc1nc(NCCSc2ccccn2)c2c(C)noc2n1`, the cytotoxicity at 70.5 h is -4.96%.
For `CN(C)C(=O)c1ccc(N2CCC3(CCC(=O)N(CCO)C3)CC2)nc1`, the cytotoxicity at 70.5 h is -2.34%.
As for `COc1ccc2c(C)c(C(=O)NC3CCOCC3)oc2c1`, the figure is -0.242%; as for `Cc1[nH]ccc1C(=O)N1C[C@H]2CC[C@@H]1CN(S(=O)(=O)N(C)C)C2`, -6.98%.
`Cc1nn(C)cc1-c1ccnc(N(C)Cc2ccon2)n1`: the cytotoxicity at 70.5 h is -5.47%.
On to `CC(C)=CCN1C[C@H]2CC[C@@H]1CN(Cc1coc(C)n1)C2`, for which the cytotoxicity at 70.5 h is -5.37%.
In the case of `COc1cccc(CC2(C(=O)O)CCN(c3nccs3)CC2)c1`, the cytotoxicity at 70.5 h was -7.32%.
As for `COc1cc(N2CCCC(CO)(Cc3ccccc3F)C2)ncn1` (stereo unspecified), the cytotoxicity at 70.5 h came out at 50.5%.
Regarding `CCN1CCC2(CCC1=O)CN(C1CCOCC1)CCN2C` (stereo unspecified), the cytotoxicity at 70.5 h was -6.68%.
In the case of `CCCN1C[C@H]2CC[C@@H]1CN(C(=O)c1ccc(N(C)CCO)cc1)C2`, the cytotoxicity at 70.5 h turned out to be 1.16%.
Turning to `COc1ncccc1-c1nc(-c2ccccn2)nn1C1CCN(C)CC1`, the cytotoxicity at 70.5 h is -6.87%.
Turning to `c1ncn(Cc2nnc(C3CCN(C4CCOCC4)CC3)n2C2CC2)n1`, the cytotoxicity at 70.5 h was -7.09%.
As for `COc1cc(C(=O)N2CCC(O)(CN3CCOCC3)C(C)(C)C2)ccn1` (stereo unspecified), the figure is -0.646%; as for `O=C(CC(F)(F)F)N1C[C@@H]2CC[C@H](C1)N(Cc1ccccc1)C2=O`, -9.7%; as for `O=C1CN(Cc2cn(CC3CCCN(C4CCSCC4)C3)nn2)CCN1` (stereo unspecified), 16.1%.
On to `Cc1cc(CC(=O)N2CCN(CC(C)C)[C@@H]3CS(=O)(=O)C[C@@H]32)ccc1F`, for which the cytotoxicity at 70.5 h was determined as 7.77%.
In the case of `CCO[C@H]1C[C@@H](O)C12CCN(C(=O)CCN1CCCC1=O)CC2`, the cytotoxicity at 70.5 h is -9.62%.
Turning to `C=Cc1ccc(C(=O)N2CCCC(Nc3ccc(F)c(F)c3)C2)cc1` (stereo unspecified), the cytotoxicity at 70.5 h is 26%.
`O=C1N(Cc2cccc(F)c2F)CCCC1(O)CNCC1CCCCC1` (stereo unspecified): the cytotoxicity at 70.5 h stood at 0.845%.
For `Cc1c(CNC(=O)c2cn(CCC3CCCCN3)nn2)cnn1C` (stereo unspecified), the cytotoxicity at 70.5 h is -1.47%.
In the case of `O=C(O)C1c2nc[nH]c2CCN1Cc1ccccc1-c1ccccc1` (stereo unspecified), the cytotoxicity at 70.5 h was -3.54%.
Regarding `O=C(NCCc1ccc2c(c1)OCO2)C1CCCN(Cc2ccco2)C1` (stereo unspecified), the cytotoxicity at 70.5 h was 1.41%.
With `CCC(NS(=O)(=O)c1ccc(C(=O)NC2CC2)cc1)c1cnn(C)c1` (stereo unspecified), the cytotoxicity at 70.5 h is -8.25%.
Take `CCc1nc(CNc2cc(C)nc(-c3cccnc3)n2)cs1`: the cytotoxicity at 70.5 h came to 24.1%.
Take `Cc1ccc(F)cc1-c1ccc(N)nc1`: the cytotoxicity at 70.5 h came out at 15.8%.
For `Cc1cnn(C(C)C(=O)NCC2CCN(c3cnn(C)c(=O)c3)CC2)c1` (stereo unspecified), the cytotoxicity at 70.5 h was -5.13%.
On to `Cc1cc(C(=O)N2C[C@H](c3ccccc3)[C@@H](N)C2)c2ccc(F)cc2n1`, for which the cytotoxicity at 70.5 h was -12.1%.
Consider `N#Cc1cccc(C(=O)N2CCCC(O)(CO)CC2)c1` (stereo unspecified), for which the cytotoxicity at 70.5 h was -4.07%.
On to `CCc1cc(-c2cc[nH]n2)nc(N2CCOCC2)n1`, for which the cytotoxicity at 70.5 h was found to be 15.6%.
As to `CCCc1cc(CN(C)C2CCSCC2)n[nH]1`, the cytotoxicity at 70.5 h was 0.588%.
Turning to `Cc1cccc(C(C(=O)NCc2nc(-c3ncccn3)no2)N(C)C)c1` (stereo unspecified), the cytotoxicity at 70.5 h is -2.35%.
Take `c1ccc(-c2cc(CN3CCCCCC3c3ccco3)on2)nc1` (stereo unspecified): the cytotoxicity at 70.5 h is -4.66%.
As for `C[C@@H](N)C(=O)N1CCC(c2[nH]ncc2-c2ccccc2)CC1`, the figure is -8.76%; as for `COc1cccc(CN(C)C(C)c2nccs2)c1OCCn1ccnc1` (stereo unspecified), -3.88%.
Turning to `Cc1cccc2ncn(C(C)Cn3cccn3)c(=O)c12` (stereo unspecified), the cytotoxicity at 70.5 h is -10.4%.
As for `CN1CCN([C@@H]2CCN(Cc3cccc(-n4cccn4)c3)C[C@H]2O)CC1`, the cytotoxicity at 70.5 h was found to be 2.97%.
The figure for `CCCc1cc(N2CCC(NC3CCOCC3)CC2)nc(C)n1` is 22.8%.
As to `COc1ccc(N2CCN(Cc3noc(CC(C)C)n3)C(C)C2=O)cc1` (stereo unspecified), the cytotoxicity at 70.5 h is -24.6%.
Take `NC(=O)c1cc2c(nc1Oc1ccc(CN3CCCC3)cc1F)CCC2`: the cytotoxicity at 70.5 h is -10.9%.
`COc1c(F)cc(-c2cn(CCn3c(C)cc(C)nc3=O)nn2)cc1Cl`: the cytotoxicity at 70.5 h was -2.6%.
As for `Cc1cccnc1CN1CCN(C(=O)CCn2ccc(=O)[nH]c2=O)CC1`, the cytotoxicity at 70.5 h was -9.8%.
As for `COCCN1CCC2(CC1)CC(c1ccccc1)C(=O)N2C` (stereo unspecified), the figure is -7.45%; as for `Cc1nccn1CC1CCCN(C(=O)Cc2ccsc2)C1` (stereo unspecified), -17.7%.
Consider `COCCN1CC2(CCCN(Cc3cc(=O)c(OC)co3)C2)CCC1=O` (stereo unspecified), for which the cytotoxicity at 70.5 h was -8.24%.
Turning to `CCc1nc(N2CCCN(c3ncccn3)CC2)c2cnn(C)c2n1`, the cytotoxicity at 70.5 h was -7.44%.
As for `Cn1cc(-c2ccnc(NCC3CC3)n2)cn1`, the figure is -10.3%; as for `O=C(O)C1(O)CCN(c2ccc3cccc(Cl)c3n2)CC1`, -20.3%; as for `CCCOC(C)Cn1ccc2[nH]c(=O)c(C#N)cc2c1=O` (stereo unspecified), 10.5%.
In the case of `CC(=O)Nc1ccc(-c2ccccc2CCN)cc1`, the cytotoxicity at 70.5 h is -4.46%.
With `CCNC(=O)[C@@H]1C[C@@H](N)CN1C(=O)Cc1cc(C)ccc1C`, the cytotoxicity at 70.5 h was -8.37%.
As for `CCc1nc(C)sc1CN1CC[C@@](O)(C2CC2)[C@H](C)C1`, the figure is -7.56%; as for `O=C1CC[C@H]2CN(C3CCOCC3)CC[C@H]2N1CCC1=CCCCC1`, 2.84%.
Consider `Cc1nc2c(c(NCc3ccccc3)n1)CCN(C(=O)C1CCC1)CC2`, for which the cytotoxicity at 70.5 h is -6.11%.
As for `CN(C)c1nc(NCc2ccccc2Cn2cccn2)ncc1F`, the figure is 5.75%; as for `Cc1ccc([C@H]2CN(C(=O)CC3CCC3)C[C@@H]2N)o1`, 0.0304%.
The figure for `CCS(=O)(=O)N1CCC(c2nnc(CN3CCCCC3)n2C)CC1` is -3.65%; for `NCC1Cc2cc(-c3cncc(C(=O)N4CCOCC4)n3)cc(Cl)c2O1` (stereo unspecified) it is -4.26%.
The figure for `Cn1cccc1C(=O)N1C[C@H]2CC[C@@H]1CN(Cc1cscn1)C2` is 1.29%; for `CCCc1cc(CNC2CCN(c3cc(C)nc(N)n3)CC2)on1` it is -5.61%.
As for `O=C(C1CCCO1)N1CCC(n2cc(-c3ccsc3)nn2)CC1` (stereo unspecified), the cytotoxicity at 70.5 h is -13.3%.
Regarding `Cc1nn(C)c(C)c1CCC(=O)N1CCCOC(Cn2cccn2)C1` (stereo unspecified), the cytotoxicity at 70.5 h was -2.69%.
For `O=C1CCCCN1Cc1cccc(OC(F)F)c1`, the cytotoxicity at 70.5 h stood at 4.41%.
As for `CC(=O)NCC(=O)N1CCC(C2CCN(Cc3ccc(Cl)cc3)C2)CC1` (stereo unspecified), the cytotoxicity at 70.5 h is -2.13%.
As for `Cc1ncsc1CCCn1ccnc1-c1cc2n(n1)CCCNC2`, the figure is -9.03%; as for `O=C(CCc1cn[nH]c1)N1CCC(C2CCN(c3ncccn3)CC2)C1` (stereo unspecified), 0.44%.
Regarding `Cc1c[nH]c(CN(C)C(=O)[C@]23CNC[C@H]2CNC3)n1`, the cytotoxicity at 70.5 h is -4.74%.
Turning to `C1Cc2nc(CCNc3nc(C4CC4)nc4c3CCNCC4)sc2C1`, the cytotoxicity at 70.5 h is -4.01%.
As for `Cc1cc(C)n(CCNC(=O)c2ncc[nH]2)c(=O)n1`, the figure is -3.22%.
As to `COc1cccc(Cc2nc3c([nH]2)CC(C)(C)CNC3=O)c1OC`, the cytotoxicity at 70.5 h was -1.08%.
Regarding `CC(COc1ccccc1)NCc1cn2ccccc2n1` (stereo unspecified), the cytotoxicity at 70.5 h was -4.87%.
The figure for `COc1ccnc(N2C[C@@H](NS(=O)(=O)N(C)C)[C@H](C(C)C)C2)n1` is 9.46%; for `COCCN(C)C[C@@H]1CN(c2nnc(C(C)C)s2)C[C@@H]1CO` it is -9.43%; for `CN(Cc1cc(C(C)(C)C)n[nH]1)C(=O)c1ccc2nccn2c1` it is -2.34%.
Take `Cc1cc2nc(C(C)C)cc(NCC(c3ccccn3)N(C)C)n2n1` (stereo unspecified): the cytotoxicity at 70.5 h was 3.67%.
On to `CCN(Cc1cc(F)ccc1Cl)C1CCS(=O)(=O)C1` (stereo unspecified), for which the cytotoxicity at 70.5 h was found to be 29.9%.
The figure for `COc1ccc(CC2(CO)CCN(c3cc(N)ncn3)CC2)cc1` is -6.39%; for `Nc1nc2c(c(N3CCSCC3)n1)CCN(Cc1ccccn1)CC2` it is -2.53%; for `CNC(=O)c1[nH]nc2c1CN(c1cc(C3CCCNC3)nc(C)n1)CC2` (stereo unspecified) it is -10.6%.
Regarding `CCc1noc(C)c1-c1nc(Cc2cccs2)nn1C1CCN(C)CC1`, the cytotoxicity at 70.5 h was -1.49%.
With `CN(C)C(=O)N1CCN(Cc2nc3ccccc3[nH]2)[C@H]2CS(=O)(=O)C[C@H]21`, the cytotoxicity at 70.5 h was 25%.
The figure for `Cc1ccc(C(=O)O)cc1-c1cccc(C(C)N(C)C)c1` (stereo unspecified) is -2.39%.
The figure for `CC(C)COc1cccc(-c2nc3c([nH]2)CCNC3)c1` is 3.41%; for `O=C(O)C(c1ccc2c(c1)OCCO2)N1CCCC1` (stereo unspecified) it is -3.29%.
